Calls of active or inactive are those of the source.
Legend:
Genome polyprotein = Genome polyprotein (dengue virus type 2, UniProt P29990); assay: Dengue-2 NS5 methyltransferase inhibitors, primary screen, biochemical, confirmation dose response (AID 588689); assay type: functional
[1] = target: T1, High affinity choline transporter 1 (Homo sapiens, UniProt Q9GZV3); assay: CHT inhibitors, dose response, cell-based, 5-point CRC, membrane potential dye (AID 504840); assay type: functional
T1 sequence (Q9GZV3 whole entry): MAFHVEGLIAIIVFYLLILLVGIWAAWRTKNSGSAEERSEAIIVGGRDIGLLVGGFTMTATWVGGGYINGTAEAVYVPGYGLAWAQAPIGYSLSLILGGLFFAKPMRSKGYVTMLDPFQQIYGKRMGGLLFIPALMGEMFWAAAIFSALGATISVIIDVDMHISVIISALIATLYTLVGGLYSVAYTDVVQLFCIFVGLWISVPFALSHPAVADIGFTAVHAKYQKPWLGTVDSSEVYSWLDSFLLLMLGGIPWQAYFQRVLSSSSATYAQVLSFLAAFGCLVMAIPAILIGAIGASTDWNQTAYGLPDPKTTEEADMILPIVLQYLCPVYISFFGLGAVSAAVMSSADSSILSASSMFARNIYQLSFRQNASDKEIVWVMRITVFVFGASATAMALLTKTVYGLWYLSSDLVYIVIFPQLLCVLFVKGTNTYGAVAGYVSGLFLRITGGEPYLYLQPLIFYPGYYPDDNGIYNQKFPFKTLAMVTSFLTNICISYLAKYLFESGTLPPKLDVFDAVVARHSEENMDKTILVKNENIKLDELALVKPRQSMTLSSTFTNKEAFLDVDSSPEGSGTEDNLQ

HEK293 = assay: inhibitors of LMP1-driven NF-kB reporter, dose response, cell-based, HEK293, luciferase, cherry-pick (AID 588343); assay type: functional; conditions: Homo sapiens
H9c2 = assay: cells; assay type: functional, cell-based; conditions: Rattus norvegicus, H9c2, Myocardium;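 further: confirmatory concentration-response retest of ultra-high-throughput screening hits for modulation of myocardial damage; cell death induced by hydrogen peroxide oxidative stress; compound pretreatment for 60 min then peroxide exposure for 2 h; potency is for protecting the cells against peroxide damage rather than for killing them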
Cytochrome P450 2C9 = Cytochrome P450 2C9 (Homo sapiens, UniProt P11712)
Cytochrome P450 2C9, sequence (P11712 whole entry): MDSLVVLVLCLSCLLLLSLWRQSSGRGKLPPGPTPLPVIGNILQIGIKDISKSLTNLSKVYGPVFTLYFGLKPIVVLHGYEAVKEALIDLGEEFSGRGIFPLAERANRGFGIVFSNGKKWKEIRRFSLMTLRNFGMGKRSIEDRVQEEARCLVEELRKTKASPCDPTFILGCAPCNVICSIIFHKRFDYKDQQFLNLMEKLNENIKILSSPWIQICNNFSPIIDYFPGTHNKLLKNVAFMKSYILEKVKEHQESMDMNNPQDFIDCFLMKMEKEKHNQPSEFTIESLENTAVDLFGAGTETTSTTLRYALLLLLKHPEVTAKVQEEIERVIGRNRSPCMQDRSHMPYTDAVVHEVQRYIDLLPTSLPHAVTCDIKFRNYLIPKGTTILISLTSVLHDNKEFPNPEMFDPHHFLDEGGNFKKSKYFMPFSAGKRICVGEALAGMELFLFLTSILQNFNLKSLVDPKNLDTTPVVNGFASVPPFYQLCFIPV

[2] = Shn3 3'UTR reporter inhibitors, dose response, cell-based, Clone20 osteoblasts, firefly luciferase, cherry-picked (AID 624132); assay type: functional;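 further: firefly luciferase luminescence from reporter carrying the Shn3 3'UTR in osteoblasts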
[3] = HepG2 cell cytotoxicity, dose response, cytotoxicity control for Shn3 inhibitor project, CellTiter-Glo, cherry-picked (AID 624134); assay type: functional, cell-based
[4] = control 3'UTR Renilla luciferase suppression, dose response, counter-screen for Shn3 inhibitor project, cell-based, Clone20-Shn3RL, cherry-picked (AID 624133); assay type: functional
Cytochrome P450 1A2 = target: T2, Cytochrome P450 1A2 (Homo sapiens, UniProt P05177);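 further: PubChem cytochrome P450 panel assay, CYP1A2 panel member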
T2 sequence (P05177 whole entry): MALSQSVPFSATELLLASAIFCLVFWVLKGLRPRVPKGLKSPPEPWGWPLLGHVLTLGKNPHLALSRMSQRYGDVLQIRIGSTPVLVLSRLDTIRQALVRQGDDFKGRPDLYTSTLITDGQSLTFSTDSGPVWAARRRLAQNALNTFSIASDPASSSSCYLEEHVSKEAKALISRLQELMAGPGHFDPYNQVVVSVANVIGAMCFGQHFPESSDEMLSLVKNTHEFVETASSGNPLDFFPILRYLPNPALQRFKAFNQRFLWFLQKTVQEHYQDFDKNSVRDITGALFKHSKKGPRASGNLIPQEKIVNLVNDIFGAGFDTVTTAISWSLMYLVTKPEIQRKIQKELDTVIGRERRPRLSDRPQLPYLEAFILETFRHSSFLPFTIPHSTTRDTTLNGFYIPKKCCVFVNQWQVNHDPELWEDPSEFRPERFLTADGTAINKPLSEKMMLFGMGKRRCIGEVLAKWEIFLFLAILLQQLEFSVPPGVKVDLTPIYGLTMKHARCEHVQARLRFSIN

Cytochrome P450 3A4 = Cytochrome P450 3A4 (Homo sapiens, UniProt P08684);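 further: CYP3A4 tested as one member of a cytochrome P450 panel screen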
Cytochrome P450 3A4, sequence (P08684 whole entry): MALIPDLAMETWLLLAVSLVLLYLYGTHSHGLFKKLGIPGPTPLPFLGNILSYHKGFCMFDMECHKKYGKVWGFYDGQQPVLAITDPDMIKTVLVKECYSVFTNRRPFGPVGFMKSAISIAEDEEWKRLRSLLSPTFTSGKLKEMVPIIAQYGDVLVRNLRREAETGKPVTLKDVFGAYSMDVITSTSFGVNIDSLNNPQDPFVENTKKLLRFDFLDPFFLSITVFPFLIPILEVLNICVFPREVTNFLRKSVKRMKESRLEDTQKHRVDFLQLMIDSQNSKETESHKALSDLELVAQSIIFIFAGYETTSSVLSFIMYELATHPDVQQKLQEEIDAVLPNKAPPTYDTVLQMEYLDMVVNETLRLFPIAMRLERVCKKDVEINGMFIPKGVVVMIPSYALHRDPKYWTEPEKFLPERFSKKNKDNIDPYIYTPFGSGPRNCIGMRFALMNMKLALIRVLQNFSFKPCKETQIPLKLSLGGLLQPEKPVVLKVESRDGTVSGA

[5] = microbe, parasite or virus in culture; assay type: functional; conditions: Mycobacterium tuberculosis
[6] = target: Heat shock protein HSP 90-alpha (Homo sapiens, UniProt P07900); assay type: functional, organism-based
INS1 = assay: beta cell apoptosis inhibitors, cytokine rescue, dose response, luminescence, retest (AID 449756); assay type: functional, cell-based; conditions: Rattus norvegicus;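 further: cell death triggered by IL-1 beta plus TNF-alpha plus IFN-gamma mixture; protective hits raise ATP signal compared with cytokine alone wells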

Genome polyprotein, sequence (P29990 2492-3391 limits assumed): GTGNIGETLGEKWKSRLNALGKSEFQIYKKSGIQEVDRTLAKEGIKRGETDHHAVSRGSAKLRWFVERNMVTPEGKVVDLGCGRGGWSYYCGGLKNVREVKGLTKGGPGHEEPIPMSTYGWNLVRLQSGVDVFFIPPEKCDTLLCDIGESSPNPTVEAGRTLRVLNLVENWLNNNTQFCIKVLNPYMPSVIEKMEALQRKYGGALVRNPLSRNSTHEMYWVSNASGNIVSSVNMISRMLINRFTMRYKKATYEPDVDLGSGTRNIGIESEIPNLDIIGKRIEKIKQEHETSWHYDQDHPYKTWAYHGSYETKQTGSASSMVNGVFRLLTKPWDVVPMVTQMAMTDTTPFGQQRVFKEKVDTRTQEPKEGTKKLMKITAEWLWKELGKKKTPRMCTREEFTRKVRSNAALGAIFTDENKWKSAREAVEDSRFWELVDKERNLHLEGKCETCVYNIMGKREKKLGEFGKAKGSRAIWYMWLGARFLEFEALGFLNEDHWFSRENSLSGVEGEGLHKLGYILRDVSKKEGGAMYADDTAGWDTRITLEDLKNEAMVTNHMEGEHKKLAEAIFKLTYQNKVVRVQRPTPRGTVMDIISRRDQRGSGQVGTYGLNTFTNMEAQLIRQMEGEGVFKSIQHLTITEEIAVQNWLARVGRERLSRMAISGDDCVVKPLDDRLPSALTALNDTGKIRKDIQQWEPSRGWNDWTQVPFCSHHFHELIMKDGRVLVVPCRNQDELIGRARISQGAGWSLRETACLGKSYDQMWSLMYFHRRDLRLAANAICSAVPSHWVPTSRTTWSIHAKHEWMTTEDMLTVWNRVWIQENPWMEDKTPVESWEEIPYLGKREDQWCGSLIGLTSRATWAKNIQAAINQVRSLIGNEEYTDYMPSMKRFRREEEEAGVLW

O=C(O)/C=C/C(=O)c1ccc(O)cc1
IC50 (Genome polyprotein): > 100 µM (active)

O=C(c1c(O)c2ccccc2oc1=O)C1CCCCC1
IC50 [1]: 10 µM (active)

COc1ccc(-n2c(C)c(C(C)=O)c3cc(OC(C)=O)ccc32)cc1
AC50 (HEK293): 4.43 µM (active)
IC50 (H9c2): > 79 µM (inactive)

COc1ccc(NC(=O)c2ccc(-c3ccccc3)cc2)cc1S(=O)(=O)N1CCOCC1
AC50 (HEK293): 0.698 µM (active)

C=CCn1cc(/C=N\NC(=O)c2cc3c(ccc4ccccc43)o2)c2ccccc21
AC50 (Cytochrome P450 2C9): inconclusive

CCOC(=O)c1oc2nc(CC(C)C)c3c(c2c1N)CCCC3
IC50 [1]: 12.9 µM (active)

CC(O)(c1ccncc1)c1nc(-c2cccc(C(F)(F)F)c2)cs1 (stereo unspecified)
AC50 [2]: 5.34 µM (active)
AC50 [3]: > 70 µM (inactive)
AC50 [4]: 12.5 µM (active)

CCNc1ncc2nc(-c3ccccc3)c(=O)n(Cc3ccc(F)cc3)c2n1
AC50 (Cytochrome P450 2C9): inconclusive
AC50 (Cytochrome P450 1A2): 3.16 µM (inconclusive)
AC50 (Cytochrome P450 3A4): 20 µM (inconclusive)

Cc1ccc(Nc2nc(N)c([N+](=O)[O-])c(N3CCCC(C)C3)n2)cc1C (stereo unspecified)
CC50 [5]: 40 µM (active)
AC50 [6]: 8.91 µM (active)

CN(C)C1=NC[C@H](Cc2ccccc2)N1CCCC1CCCCC1
AC50 [2]: 1.47 µM (active)
AC50 [3]: 20.3 µM (active)
AC50 (INS1): 7.42 µM (active)
AC50 [4]: 4.98 µM (active)

COc1ccc(C(=O)N[C@H]2CCCCNC2=O)cc1OC1CCN(C(C)C)CC1
IC50 [1]: 15.1 µM (active)

CC(=O)NC1=NC(=O)CS1
AC50 (Cytochrome P450 2C9): inconclusive
AC50 (Cytochrome P450 1A2): 0.2 µM (inconclusive)

CCc1c(C)sc(NC(=O)OC)c1C(N)=O
AC50 (Cytochrome P450 2C9): inconclusive

c1ccc(CN2CCN(c3nc4ccccc4n4cnnc34)CC2)cc1
IC50 [1]: 1.82 µM (active)

Cc1onc(-c2ccccc2Cl)c1C(=O)Nc1nnc(-c2cccc([N+](=O)[O-])c2)s1
IC50 [1]: 19.1 µM (active)

C[C@@H]1O[C@H]1P(=O)([O-])[O-].[Na+].[Na+]
AC50 (Cytochrome P450 2C9): inconclusive

— ChEMBL document CHEMBL1201862, “PubChem BioAssay data set” (2004)
